Experimental data taken from ChEMBL document CHEMBL1201862, “PubChem BioAssay data set” (2004).
Calls of active or inactive are those of the source.

How the values were obtained:
[1] = biological target: T1, Endoribonuclease toxin MazF (Escherichia coli K-12, UniProt P0AE70); assay: SAR analysis of small molecule activators of the MazEF TA System via a fluorescence-based single-stranded RNase assay counterscreen. [Related pubchem assays (depositor defined):AID504720, AID504743]; type: functional
T1 sequence (P0AE70 whole entry): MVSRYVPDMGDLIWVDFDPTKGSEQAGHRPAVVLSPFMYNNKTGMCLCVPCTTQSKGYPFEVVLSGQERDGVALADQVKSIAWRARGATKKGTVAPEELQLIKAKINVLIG

[2] = biological target: T1, Endoribonuclease toxin MazF; assay: substrate-only fluorescence increase artefacts – biochemical, single-stranded RNase substrate, counter-screen for MazEF activator project, dose response (AID 588502); type: functional
MEF = assay: SAR analysis of small molecule cytotoxicity of MazEF TA System activators in embryonic fibroblast (MEF) cells. [Related pubchem assays (depositor defined):AID504720, AID504743]; type: functional; conditions: Mus musculus
[3] = biological target: T1, Endoribonuclease toxin MazF; assay: MazEF toxin-antitoxin RNase activation – biochemical, fluorescence, single-stranded RNA substrate, SAR follow-up (AID 588603); type: functional
[4] = biological target: T1, Endoribonuclease toxin MazF; assay: activation of MazEF endoribonuclease cleavage – biochemical, fluorescence, single-stranded RNA substrate, uHTS hits, dose response (AID 588481); type: functional
[5] = Luminescence Cell-Based Dose Response HTS to Identify Activators of Luciferase Translation or Activity in H4 […] Cells. [Related pubchem assays: 1829 (Project Summary), 1814 (Primary HTS)]; type: functional
[6] = biological target: T2, High affinity choline transporter 1 (Homo sapiens, UniProt Q9GZV3); assay: human choline transporter potentiators, potency – cell-based, 10-point CRC, membrane potential dye, dose response (AID 602376); type: functional
T2 sequence (Q9GZV3 whole entry): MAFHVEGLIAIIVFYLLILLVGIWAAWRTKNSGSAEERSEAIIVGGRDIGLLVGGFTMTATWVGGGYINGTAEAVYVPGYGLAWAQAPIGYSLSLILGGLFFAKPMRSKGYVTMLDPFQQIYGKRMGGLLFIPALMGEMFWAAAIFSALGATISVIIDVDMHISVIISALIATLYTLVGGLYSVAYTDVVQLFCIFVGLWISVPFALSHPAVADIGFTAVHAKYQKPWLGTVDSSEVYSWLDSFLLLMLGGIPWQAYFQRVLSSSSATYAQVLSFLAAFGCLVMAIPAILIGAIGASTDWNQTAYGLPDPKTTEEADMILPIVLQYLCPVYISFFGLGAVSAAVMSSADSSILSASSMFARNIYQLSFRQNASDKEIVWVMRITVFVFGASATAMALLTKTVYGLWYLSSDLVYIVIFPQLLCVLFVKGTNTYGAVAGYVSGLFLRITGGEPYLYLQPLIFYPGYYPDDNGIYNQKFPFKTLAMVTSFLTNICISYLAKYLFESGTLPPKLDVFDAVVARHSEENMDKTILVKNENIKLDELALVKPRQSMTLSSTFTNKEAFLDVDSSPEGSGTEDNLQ

H4 = assay: Luminescence Cell-Based Dose Response HTS to Identify Activators of 5'UTR Stem-Loop Driven Prion Protein mRNA Translation in H4 Neuroglioblastoma Cells. [Related pubchem assays: 1829 (Project Summary), 1814 (Primary HTS)]; type: functional; conditions: Homo sapiens
[7] = biological target: Benomyl/methotrexate resistance protein (Candida albicans, UniProt P28873); assay: Candida albicans Mdr1 pump blockade titration – singleplex, Cherry Pick2 set, dose response (AID 623992); type: functional; conditions: read-out: EC50_MICROM
Candida albicans [8] = assay: fluconazole-resistant Candida strain growth inhibitors – CaCi-8 strain, dry powder, set 4, dose response (AID 488950); type: functional, organism-based
Candida albicans [9] = assay: resistant Candida growth with fluconazole co-treatment – CaCi-8 strain, Alamar Blue, dry powder, set 2, dose response (AID 488909); type: functional, organism-based
Candida albicans [10] = assay: Candida growth reduction in fluconazole presence – CaCi-2 strain, Alamar Blue, dry powder, set 2, antifungal resistance reversal project, dose response (AID 488930); type: functional, organism-based
Candida albicans [11] = assay: C. albicans growth inhibition with fluconazole – CaCi-2 strain, Alamar Blue, dry powder, set 4, dose response (AID 488943); type: functional, organism-based
Jurkat = assay: SAR Analysis of small molecule inhibitors of T-cell specific antigen receptor-induced NF-kB activation in a Jurkat cell line using a luminescence assay - Set 2. [Related pubchem assays (depositor defined):AID435003, AID435012, AID465]; type: functional, cell-based; conditions: Homo sapiens
HEK293 [12] = assay: SAR Analysis of small molecule inhibitors of T-cell specific antigen receptor-induced NF-kB activation in a HEK-293T cell line using a luminescence assay - Set 2. [Related pubchem assays (depositor defined):AID435003, AID435012, AID489026]; type: functional, cell-based; conditions: Homo sapiens
HEK293 [13] = assay: HEK293T cell viability loss, resazurin readout – resazurin fluorescence, cytotoxicity control for NF-kB activator project, SAR follow-up (AID 493251); type: functional, cell-based; conditions: Homo sapiens

Chain of Benomyl/methotrexate resistance protein (P28873 whole entry): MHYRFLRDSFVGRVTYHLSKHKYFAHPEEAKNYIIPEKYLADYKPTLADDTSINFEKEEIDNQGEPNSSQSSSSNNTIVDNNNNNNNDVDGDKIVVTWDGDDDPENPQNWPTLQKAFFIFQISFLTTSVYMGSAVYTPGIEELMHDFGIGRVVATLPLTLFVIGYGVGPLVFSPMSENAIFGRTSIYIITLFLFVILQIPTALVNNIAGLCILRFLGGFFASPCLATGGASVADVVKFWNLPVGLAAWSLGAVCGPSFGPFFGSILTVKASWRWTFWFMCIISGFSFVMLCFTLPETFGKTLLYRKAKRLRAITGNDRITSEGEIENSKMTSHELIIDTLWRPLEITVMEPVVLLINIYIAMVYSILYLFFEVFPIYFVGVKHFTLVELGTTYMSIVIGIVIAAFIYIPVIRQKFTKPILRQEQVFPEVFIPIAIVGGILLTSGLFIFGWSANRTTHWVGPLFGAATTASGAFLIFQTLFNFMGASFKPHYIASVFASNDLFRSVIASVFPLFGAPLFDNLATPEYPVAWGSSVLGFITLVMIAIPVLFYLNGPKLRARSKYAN

## O=C1c2ccccc2C(Nc2ccc(S(=O)(=O)N3CCCCCC3)cc2)N1c1ccccn1 (stereo unspecified)
[1]
  EC50: > 99 µM (inactive)
[2]
  EC50: > 99 µM (inactive)
MEF
  CC50: > 99 µM (inactive)
[3]
  EC50: 19.3 µM (active)
[4]
  EC50: 16.1 µM (active)

## CCC1=[N+](CC(=O)c2ccc(C)cc2)CCn2c(C)ccc21
[5]
  EC50: > 120 µM (not active)
[6]
  EC50: 13 µM (active)
H4
  EC50: 28.3 µM (active)

## O=C(/C=C/c1cccs1)N1CCC2(CC1)Oc1ccc(F)cc1C(=O)C21CC(c2ccccc2)=NO1 (stereo unspecified)
[7]
  EC50: 29.7 µM (active)

## O=C(c1ccc(Cl)cc1)N1CCN(c2ccnc3ccc(Cl)cc23)CC1
Candida albicans [8]
  AC50: 1.47 µM (active)
Candida albicans [9]
  AC50: 9.92 µM (active)
Candida albicans [10]
  AC50: < 0.8 µM (active)
Candida albicans [11]
  AC50: 0.397 µM (active)

## N#Cc1cccc(NC(=O)c2ccc([N+](=O)[O-])o2)c1
Jurkat
  IC50: 18.1 µM (active)
HEK293 [12]
  IC50: 32.9 µM (inactive)
HEK293 [13]
  IC50: 57.4 µM (inactive)
